Blank lines part the entries; values can stand above or below the molecule they belong to. Active and inactive are the calls of the source. No cut-off for these calls is given here.
Experiments:
[1] = target: Tyrosine-protein kinase Lyn (Homo sapiens) (UniProt P07948); test: Inhibition of human LYN B at 18.6 nM by HotSpot assay relative to control
[2] = target: Mitogen-activated protein kinase 10 (Homo sapiens) (UniProt P53779); test: Inhibition of human JNK3 at 18.6 nM by HotSpot assay relative to control
[3] = target: Misshapen-like kinase 1 (Homo sapiens) (UniProt Q8N4C8); test: Inhibition of human MINK1 at 18.6 nM by HotSpot assay relative to control
[4] = target: Non-receptor tyrosine-protein kinase TYK2 (Homo sapiens) (UniProt P29597); test: Inhibition of human TYK2 at 18.6 nM by HotSpot assay relative to control
[5] = target: Serine/threonine-protein kinase N2 (Homo sapiens) (UniProt Q16513); test: Inhibition of human PRK2 at 18.6 nM by HotSpot assay relative to control
[6] = target: Phosphorylase b kinase gamma catalytic chain, skeletal muscle/heart isoform (Homo sapiens) (UniProt Q16816); test: Inhibition of human PHKg1 at 18.6 nM by HotSpot assay relative to control
Homo sapiens = species: Homo sapiens; test: Inhibition of human CDK2/cyclin A at 18.6 nM by HotSpot assay relative to control
[7] = target: Protein kinase C gamma type (Homo sapiens) (UniProt P05129); test: Inhibition of human PKCg at 18.6 nM by HotSpot assay relative to control
[8] = target: Mitogen-activated protein kinase kinase kinase 11 (Homo sapiens) (UniProt Q16584); test: Inhibition of human MAP3K11 at 18.6 nM by HotSpot assay relative to control
[9] = target: Tyrosine-protein kinase FRK (Homo sapiens) (UniProt P42685); test: Inhibition of human FRK at 18.6 nM by HotSpot assay relative to control
[10] = target: T1, Dual specificity tyrosine-phosphorylation-regulated kinase 4 (Homo sapiens) (UniProt Q9NR20); test: Inhibition of human DYRK4 at 18.6 nM by HotSpot assay relative to control
T1 sequence (whole entry): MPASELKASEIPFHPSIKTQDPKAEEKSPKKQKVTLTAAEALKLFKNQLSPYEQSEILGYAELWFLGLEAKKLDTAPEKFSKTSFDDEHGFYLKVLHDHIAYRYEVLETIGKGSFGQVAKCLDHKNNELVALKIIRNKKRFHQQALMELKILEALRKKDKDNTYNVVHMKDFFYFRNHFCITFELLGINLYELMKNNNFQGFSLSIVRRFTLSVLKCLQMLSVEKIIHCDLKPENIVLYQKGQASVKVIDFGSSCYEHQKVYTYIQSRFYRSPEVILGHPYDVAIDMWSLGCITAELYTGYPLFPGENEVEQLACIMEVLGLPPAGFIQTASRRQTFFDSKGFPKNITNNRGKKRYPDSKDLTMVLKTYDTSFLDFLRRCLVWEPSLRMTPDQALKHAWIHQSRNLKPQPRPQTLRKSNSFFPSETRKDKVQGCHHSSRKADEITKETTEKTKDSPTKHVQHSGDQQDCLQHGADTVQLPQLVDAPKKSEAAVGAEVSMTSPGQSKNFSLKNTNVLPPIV

[11] = target: T2, Interleukin-1 receptor-associated kinase 4 (Homo sapiens) (UniProt Q9NWZ3); test: Inhibition of human IRAK4 at 18.6 nM by HotSpot assay relative to control
T2 sequence (whole entry): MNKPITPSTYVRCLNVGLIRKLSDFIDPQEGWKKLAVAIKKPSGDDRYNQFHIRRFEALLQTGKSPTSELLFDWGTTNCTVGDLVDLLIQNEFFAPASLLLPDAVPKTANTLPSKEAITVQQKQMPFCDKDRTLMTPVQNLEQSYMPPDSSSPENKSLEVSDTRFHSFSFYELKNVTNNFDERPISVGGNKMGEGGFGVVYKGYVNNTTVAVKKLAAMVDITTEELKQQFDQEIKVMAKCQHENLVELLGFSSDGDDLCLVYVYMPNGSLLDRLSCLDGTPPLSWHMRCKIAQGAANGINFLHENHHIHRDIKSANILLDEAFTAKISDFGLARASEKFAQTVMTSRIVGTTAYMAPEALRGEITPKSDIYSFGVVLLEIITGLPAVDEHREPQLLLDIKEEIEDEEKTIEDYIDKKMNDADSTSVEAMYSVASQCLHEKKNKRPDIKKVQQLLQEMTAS

[12] = target: Casein kinase I isoform gamma-1 (Homo sapiens) (UniProt Q9HCP0); test: Inhibition of human CK1g1 at 18.6 nM by HotSpot assay relative to control
[13] = target: Focal adhesion kinase 1 (Homo sapiens) (UniProt Q05397); test: Inhibition of human FAK at 1.82 nM by HotSpot assay relative to control
[14] = target: T3, Mitogen-activated protein kinase kinase kinase 3 (Homo sapiens) (UniProt Q99759); test: Inhibition of human MEKK3 at 1.82 nM by HotSpot assay relative to control
T3 sequence (whole entry): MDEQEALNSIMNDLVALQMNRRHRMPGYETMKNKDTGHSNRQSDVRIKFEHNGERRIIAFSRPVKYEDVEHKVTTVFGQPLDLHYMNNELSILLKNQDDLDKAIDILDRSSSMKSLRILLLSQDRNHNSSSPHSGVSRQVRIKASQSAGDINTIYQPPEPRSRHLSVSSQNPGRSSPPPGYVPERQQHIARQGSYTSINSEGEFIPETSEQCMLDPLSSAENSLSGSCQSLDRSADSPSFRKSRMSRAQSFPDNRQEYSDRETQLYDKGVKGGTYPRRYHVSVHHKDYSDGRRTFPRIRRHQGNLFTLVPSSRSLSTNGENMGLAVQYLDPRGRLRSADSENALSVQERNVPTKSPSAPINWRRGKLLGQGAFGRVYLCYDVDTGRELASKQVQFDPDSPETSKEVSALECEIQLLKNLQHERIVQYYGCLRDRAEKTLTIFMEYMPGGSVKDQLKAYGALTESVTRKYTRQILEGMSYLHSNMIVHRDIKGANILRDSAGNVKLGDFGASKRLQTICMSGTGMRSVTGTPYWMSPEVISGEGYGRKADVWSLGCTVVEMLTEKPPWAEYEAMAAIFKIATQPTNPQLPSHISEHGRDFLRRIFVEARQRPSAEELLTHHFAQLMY

[15] = target: Tyrosine-protein kinase Lyn (Homo sapiens) (UniProt P07948); test: Inhibition of human LYN B at 1.82 nM by HotSpot assay relative to control
[16] = target: Protein kinase C eta type (Homo sapiens) (UniProt P24723); test: Inhibition of human PKCeta at 1.82 nM by HotSpot assay relative to control
[17] = Inhibition of di-phosphorylated human Insulin receptor (978 to 1283 residues) C981S mutant kinase domain expressed in baculovirus infected Sf9 cells incubated for 1 hr by [gamma-33P]ATP assay
[18] = target: Calcium/calmodulin-dependent protein kinase kinase 1 (Homo sapiens) (UniProt Q8N5S9); test: Inhibition of human CAMKK1 at 500 nM by HotSpot assay relative to control

Chain of Tyrosine-protein kinase Lyn (Homo sapiens) (P07948 2-512 limits assumed): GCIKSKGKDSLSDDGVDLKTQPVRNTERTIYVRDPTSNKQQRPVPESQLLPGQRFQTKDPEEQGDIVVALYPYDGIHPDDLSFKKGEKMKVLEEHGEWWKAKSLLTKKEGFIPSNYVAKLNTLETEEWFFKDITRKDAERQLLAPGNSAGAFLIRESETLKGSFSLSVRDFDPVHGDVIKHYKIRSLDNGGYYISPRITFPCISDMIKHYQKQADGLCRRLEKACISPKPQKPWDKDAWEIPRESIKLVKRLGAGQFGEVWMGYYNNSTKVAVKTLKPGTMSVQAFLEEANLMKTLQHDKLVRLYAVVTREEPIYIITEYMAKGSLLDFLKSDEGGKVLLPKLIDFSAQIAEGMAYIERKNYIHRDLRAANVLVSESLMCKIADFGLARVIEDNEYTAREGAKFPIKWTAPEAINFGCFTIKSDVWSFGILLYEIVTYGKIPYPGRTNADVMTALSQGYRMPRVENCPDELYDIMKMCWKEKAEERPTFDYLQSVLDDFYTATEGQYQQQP
Chain of Phosphorylase b kinase gamma catalytic chain, skeletal muscle/heart isoform (Homo sapiens) (Q16816 whole entry, looked up, canonical isoform): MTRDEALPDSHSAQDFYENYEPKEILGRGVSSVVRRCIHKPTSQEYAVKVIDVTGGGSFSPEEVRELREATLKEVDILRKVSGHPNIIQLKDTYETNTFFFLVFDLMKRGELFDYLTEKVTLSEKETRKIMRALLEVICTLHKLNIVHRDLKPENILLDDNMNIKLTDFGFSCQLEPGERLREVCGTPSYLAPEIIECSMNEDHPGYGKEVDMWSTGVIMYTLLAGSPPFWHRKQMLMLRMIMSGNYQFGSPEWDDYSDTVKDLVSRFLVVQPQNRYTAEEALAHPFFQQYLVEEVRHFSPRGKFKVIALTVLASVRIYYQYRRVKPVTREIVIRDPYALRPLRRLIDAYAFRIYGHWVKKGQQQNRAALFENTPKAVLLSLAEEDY
Chain of Tyrosine-protein kinase FRK (Homo sapiens) (P42685 whole entry): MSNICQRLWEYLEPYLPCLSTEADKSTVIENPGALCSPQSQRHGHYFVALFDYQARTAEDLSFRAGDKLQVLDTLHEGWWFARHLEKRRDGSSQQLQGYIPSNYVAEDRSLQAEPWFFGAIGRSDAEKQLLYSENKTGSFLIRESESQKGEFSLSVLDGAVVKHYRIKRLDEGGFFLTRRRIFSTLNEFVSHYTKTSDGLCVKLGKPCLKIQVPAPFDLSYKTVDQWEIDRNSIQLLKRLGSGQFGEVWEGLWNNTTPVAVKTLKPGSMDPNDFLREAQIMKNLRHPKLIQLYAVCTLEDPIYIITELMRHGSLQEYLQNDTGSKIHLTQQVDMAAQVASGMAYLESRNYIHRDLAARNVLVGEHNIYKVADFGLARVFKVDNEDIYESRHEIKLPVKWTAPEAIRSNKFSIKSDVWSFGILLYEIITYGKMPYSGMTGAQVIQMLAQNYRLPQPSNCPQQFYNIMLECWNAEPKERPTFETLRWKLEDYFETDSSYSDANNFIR
Chain of Misshapen-like kinase 1 (Homo sapiens) (Q8N4C8 whole entry, looked up): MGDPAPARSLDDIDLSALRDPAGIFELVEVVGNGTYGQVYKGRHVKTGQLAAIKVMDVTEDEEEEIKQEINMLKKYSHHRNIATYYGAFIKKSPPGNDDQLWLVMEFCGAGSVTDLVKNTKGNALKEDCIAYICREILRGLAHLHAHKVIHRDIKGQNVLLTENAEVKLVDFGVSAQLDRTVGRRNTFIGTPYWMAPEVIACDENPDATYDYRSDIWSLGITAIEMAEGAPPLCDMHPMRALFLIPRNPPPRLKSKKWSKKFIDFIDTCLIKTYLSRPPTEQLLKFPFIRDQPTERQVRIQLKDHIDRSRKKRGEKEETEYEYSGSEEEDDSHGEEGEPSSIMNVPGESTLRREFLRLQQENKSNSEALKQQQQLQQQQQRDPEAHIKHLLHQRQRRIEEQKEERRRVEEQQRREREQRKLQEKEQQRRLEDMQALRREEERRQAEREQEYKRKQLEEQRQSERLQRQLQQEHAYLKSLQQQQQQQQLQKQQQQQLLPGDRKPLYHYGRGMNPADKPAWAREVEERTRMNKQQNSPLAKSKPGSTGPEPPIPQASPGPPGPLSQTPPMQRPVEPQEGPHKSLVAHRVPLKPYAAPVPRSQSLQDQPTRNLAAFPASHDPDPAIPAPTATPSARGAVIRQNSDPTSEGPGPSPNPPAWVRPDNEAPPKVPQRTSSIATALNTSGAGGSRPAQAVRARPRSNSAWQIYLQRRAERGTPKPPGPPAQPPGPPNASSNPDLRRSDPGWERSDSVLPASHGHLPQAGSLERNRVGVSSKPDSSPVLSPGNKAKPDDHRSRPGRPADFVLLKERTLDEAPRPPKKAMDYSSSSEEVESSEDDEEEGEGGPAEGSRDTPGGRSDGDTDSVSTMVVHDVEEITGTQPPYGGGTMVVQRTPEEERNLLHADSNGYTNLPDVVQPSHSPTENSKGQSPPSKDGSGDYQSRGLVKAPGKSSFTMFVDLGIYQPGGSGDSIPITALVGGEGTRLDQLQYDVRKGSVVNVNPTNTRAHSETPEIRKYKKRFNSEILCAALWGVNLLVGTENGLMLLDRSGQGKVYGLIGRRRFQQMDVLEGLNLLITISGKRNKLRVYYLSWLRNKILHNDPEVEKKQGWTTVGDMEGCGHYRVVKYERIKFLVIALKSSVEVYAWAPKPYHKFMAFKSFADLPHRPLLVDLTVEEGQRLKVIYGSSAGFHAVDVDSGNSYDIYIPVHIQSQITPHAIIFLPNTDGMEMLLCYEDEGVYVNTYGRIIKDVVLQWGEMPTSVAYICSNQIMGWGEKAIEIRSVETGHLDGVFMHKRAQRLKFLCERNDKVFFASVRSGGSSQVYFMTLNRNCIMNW
Chain of Casein kinase I isoform gamma-1 (Homo sapiens) (Q9HCP0 whole entry, looked up, canonical isoform): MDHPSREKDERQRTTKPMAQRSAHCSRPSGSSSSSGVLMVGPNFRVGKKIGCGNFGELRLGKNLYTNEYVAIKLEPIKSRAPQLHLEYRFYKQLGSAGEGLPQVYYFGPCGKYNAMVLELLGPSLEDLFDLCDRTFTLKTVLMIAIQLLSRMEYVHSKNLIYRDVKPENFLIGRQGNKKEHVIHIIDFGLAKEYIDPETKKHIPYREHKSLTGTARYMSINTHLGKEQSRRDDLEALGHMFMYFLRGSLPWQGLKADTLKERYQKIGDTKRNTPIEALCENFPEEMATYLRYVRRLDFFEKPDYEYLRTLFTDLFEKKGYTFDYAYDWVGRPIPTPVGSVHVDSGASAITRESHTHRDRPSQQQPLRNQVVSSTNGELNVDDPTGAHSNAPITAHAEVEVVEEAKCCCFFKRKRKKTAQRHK
Chain of Focal adhesion kinase 1 (Homo sapiens) (Q05397 2-1052 limits assumed): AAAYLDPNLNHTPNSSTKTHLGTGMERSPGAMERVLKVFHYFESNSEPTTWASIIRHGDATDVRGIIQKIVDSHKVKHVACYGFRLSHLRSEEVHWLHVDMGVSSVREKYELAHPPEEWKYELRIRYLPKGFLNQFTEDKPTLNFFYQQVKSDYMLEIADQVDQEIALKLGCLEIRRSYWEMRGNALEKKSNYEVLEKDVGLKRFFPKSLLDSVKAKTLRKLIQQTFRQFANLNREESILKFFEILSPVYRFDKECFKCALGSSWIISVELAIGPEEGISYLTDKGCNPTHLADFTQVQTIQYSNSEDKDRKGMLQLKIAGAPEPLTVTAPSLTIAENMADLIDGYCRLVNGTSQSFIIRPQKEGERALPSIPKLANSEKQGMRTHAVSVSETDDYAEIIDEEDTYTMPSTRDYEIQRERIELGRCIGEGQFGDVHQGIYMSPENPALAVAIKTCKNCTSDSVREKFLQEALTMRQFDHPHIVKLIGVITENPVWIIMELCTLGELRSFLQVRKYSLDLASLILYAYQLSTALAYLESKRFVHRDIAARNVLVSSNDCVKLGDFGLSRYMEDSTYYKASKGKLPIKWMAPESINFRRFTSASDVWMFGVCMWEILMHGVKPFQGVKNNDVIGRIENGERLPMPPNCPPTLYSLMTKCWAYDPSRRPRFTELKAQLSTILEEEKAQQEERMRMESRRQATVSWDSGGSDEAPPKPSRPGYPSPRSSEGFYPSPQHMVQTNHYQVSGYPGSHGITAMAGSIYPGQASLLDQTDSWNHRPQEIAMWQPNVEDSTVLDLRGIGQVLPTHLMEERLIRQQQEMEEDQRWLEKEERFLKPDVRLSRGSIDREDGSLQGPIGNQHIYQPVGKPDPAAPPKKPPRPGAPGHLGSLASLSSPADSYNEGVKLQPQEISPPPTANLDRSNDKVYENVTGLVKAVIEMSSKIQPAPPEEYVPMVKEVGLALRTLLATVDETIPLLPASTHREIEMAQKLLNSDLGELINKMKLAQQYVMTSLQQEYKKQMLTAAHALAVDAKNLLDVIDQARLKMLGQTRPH

inhibition [1]: 4.09% | inhibition [2]: -3.24% | inhibition [3]: -2.76% | inhibition [4]: -4.07% | inhibition [5]: 1.32% | inhibition [6]: 6.05% | inhibition (Homo sapiens): -1.46% | inhibition [7]: -8% | inhibition [8]: 0.31% | inhibition [9]: -0.1% | inhibition [10]: -1.52% | inhibition [11]: -2.53% | inhibition [12]: -0.6%
Structure (SMILES): C[C@]1(O)C[C@@H](c2nc(-c3ccc4ccc(-c5ccccc5)nc4c3)c3c(N)nccn32)C1

inhibition [13]: 1.65% | inhibition [14]: -2.8% | inhibition [15]: 2.74% | inhibition [16]: -0.87%
Structure (SMILES): C[C@@]1(C(=O)Nc2ccc(F)nc2)CCCN1c1nc(Nc2cc(C3CC3)n[nH]2)c2cccn2n1

Structure (SMILES): Oc1n[nH]c2nnc(-c3c(-c4ccccc4)nn4ccccc34)cc12
inhibition [17]: inactive | inhibition [18]: -9.31%
